Several values for one entry are separate records, joined by “and”; a condition that tells them apart may be missing. Identical values can stand only once. Entries after “also recorded” stand apart in the source; their conditions may differ. One block for each molecule: values may come before it.
How the values were obtained:
[1] = system: cultured rat forebrain neurons; assay: Survival assay of neuronal cultures (Alamar Blue reduction, 24 hr); settings: for Effect on neurotoxicity induced by NMDA plus DETA/NO: PBN at 10 mM, TEMPO at 1 mM applied 1 hr before; for Cell (neuronal) survival: ONOO− 100 μM alone, without PQQ; for Synergism with NMDA in producing neurotoxicity: DEA/NO 100 μM, DPT/NO 300 μM
Description: Neuronal cultures were prepared from embryonic day 16 Sprague Dawley rat fetuses using methods similar to those previously described (Dichter, 1978) but modified to produce cultures that contained <1% astrocytes (Rosenberg and Aizenman, 1989; Rosenberg, 1991; Rosenberg et al., 1992; Wang et al., 1998). Cultures were initially plated on poly-L-lysine-coated 24-well plastic plates (Costar, Cambridge, Mass.) using an 80:10:10 (v/v) mixture ofDMEM (Life Technologies 11960-010), Ham's F-12 (Sigma, N-4888), heat-inactivated iron-supplemented calf serum (Hyclone A2151), containing 2 mM glutamine, 25 mM HEPES, 24 U/ml penicillin, and 24 μg/ml streptomycin and maintained in a 5% CO2 (balance air) incubator at 36° C. Cell proliferation was inhibited by exposure to 5 μM cytosine arabinoside at 24 hr in vitro for 72 hr. On the fourth day of culture, the medium was completely removed and replaced with 90% MEM, 10% Nuserum IV (Collaborative Research), 2 mM glutamine, 5 mM HEPES, containing 50 units/ml superoxide dismutase (Boehringer Mannheim, Indianapolis, Ind.), 20 units/ml catalase (Sigma CV-40), total glucose 11 mM, and total sodium bicarbonate 9.3 mM, plus 2% B27 supplement (Life Technologies 17504-036). Medium was not subsequently changed. To prevent evaporation of water, culture dishes were kept in wet dishes containing filter paper that was always kept wet.
In all experiments, 24-well plates were first washed three times in Hank's balanced salt solution (HBSS) containing 0.1% bovine serum albumin (BSA), and then they were placed in Earle's balanced salt solution (EBSS, which is composed of 116 mM NaCl, 5.4 mM KCl, 1.8 mM CaCl2, 0.8 mM MgSO4, 26 mM NaHCO3, 1 mM NaH2PO4 and 5.5 mM D-glucose). Experiments were carried out exclusively in EBSS. […] PQQ was directly dissolved in EBSS.
Survival of cells was determined after 24 hr exposure to the test compounds by assessing the ability of cultures to reduce Alamar Blue (Trek Diagnostic Systems, Inc., Westlake, Ohio) as an index of viability (McGahon et al., 1995). Details of this procedure have been provided elsewhere (Back et al., 1998, 1999). In brief, the test medium was removed after 24 hr, and then replaced with EBSS plus a 1:100 dilution of Alamar Blue. After 2 hr exposure, the medium was diluted 50-fold with water, and the fluorescence intensity was determined in a Hitachi fluorescence spectrophotometer using an excitation wavelength of 530 nm and an emission wavelength of 590 nm. The photomultiplier voltage was set at 700 V. In some experiments, the cell viability determined by Alamar Blue was compared to that determined by the assay of lactate dehydrogenase (LDH) release (Koh and Choi, 1987).

[2] = system: Oligodendrocytes; assay: In vitro white matter injury assay: SIN-1 toxicity in oligodendrocytes; type: cell-based; settings: 2 hr exposure in EBSS; examined at 24 hr
Description: Oligodendrocytes were exposed to various concentrations of SIN-1 (0, 0.25, 0.5, 1 and 2 mM) in EBSS for 2 hr with or without PQQ (100 μM), then washed with HBSS containing 0.1% BSA for 2 times. Oligodendrocytes were then returned to the culture medium. The neurotoxicity was examined at 24 hr.
To illustrate the neuroprotective benefits of the invention, PQQ was used to show oligodendrocytes protection from cell toxicity in an in vitro white matter injury assay. Oligodendrocytes were exposed to various concentrations of SIN-1 (0, 0.25, 0.5, 1 and 2 mM) in EBSS for 2 hr with or without PQQ (100 μM), then washed with HBSS containing 0.1% BSA for 2 times. Oligodendrocytes were then returned to the culture medium. The neurotoxicity was examined at 24 hr.

[3] = system: cultured rat forebrain neurons; assay: Assay of intracellular ATP in neuronal cultures (firefly luciferase); type: cell-based
Description: (§1) Medium was not subsequently changed.
Experiments were carried out exclusively in EBSS. […] PQQ was directly dissolved in EBSS.
The Bioluminescent Somatic Cell Assay kit from Sigma (catalog No. FL-ASC) was used for assay of ATP as previously described (Rosenberg et al., 2000). At selected time points after addition of drug or vehicle, medium was removed, and then replaced with 200 μl of cell lysis agent. After brief agitation, the medium was transferred to microcentrifuge tubes that contained 200 μl of water. The tubes were placed on wet ice until assay. ATP assay mix was used at 25-fold dilution, and 100 μl of the extract was assayed.

[4] = system: cultured rat forebrain neurons; assay: Measurement of intracellular cGMP in neuronal cultures (enzyme-linked immunoassay); type: cell-based
Description: as §1
Intracellular cGMP was assayed by enzyme-linked immunoassay (Amersham). Cultures were washed three times, and then medium was replaced by EBSS with or without PQQ or SOD. The non-specific phosphodiesterase inhibitor, 3-isobutyl-1-methylxanthine (IBMX) at 100 μM was present in all conditions. DEA/NO, SIN-1 and peroxynitrite were added for 5 min, and then the medium was replaced with 200 μl of releasing reagent provided in the kit. The plates were agitated for 20 min at room temperature, and 20 μl of acetylation reagent was added. After 5 min, 50 μl samples were taken for assay.

[5] = system: BSA; assay: Western blot of BSA tyrosine nitration, cell-free (anti-nitrotyrosine antibody); type: biochemical, bovine; settings: SIN-1 1 mM alone
Description: BSA (0.5 mg/ml) in EBSS with or without PQQ was exposed to SIN-1 or peroxynitrite for 1 hr, and then 4× sample buffer (40% glycerol, 20% β-mercaptoethanol, 0.004% bromophenol blue, 6.4% SDS, 25% 1M Tris-HCl, pH 6.8) was added. After the samples were heated for 5 min, 2 μg protein per lane was subjected to SDS-PAGE analysis, followed by transfer to PVDF membrane (NEN Life Science, Boston, Mass.) and reacted with a mouse anti-nitrotyrosine monoclonal antibody (Upstate Biotechnology). Proteins were visualized with horseradish peroxidase-conjugated sheep anti-mouse immunoglobulin G (IgG) followed by detection with enhanced chemiluminescence.

[6] = system: G93A-SOD transgenic mice; settings: cited from earlier work
[7] = nitric oxide donor 1 mM alone (FIG. 6B)
[8] = nitric oxide donor 1 mM without MK-801 (FIG. 5A)
[9] = five minutes, agent alone: SIN-1 100 μM, ONOO− 100 μM or DEA/NO 10 μM, IBMX 100 μM
[10] = one hour after nitric oxide donor 1 mM alone

Molecule: NCCN(CCN)/[N+]([O-])=N/O [DETA/NO, diethylaminetriamine NONOate]
- Synergistic effect with kainate in producing neurotoxicity ([1]; DETA/NO 300 μM with kainate 20 μM): synergistic effect
- Neuronal survival [1, 7]: 25.2±10.6 % of control
- Neuronal survival [1, 8]: 27.9±8.0%

Molecule: O=C(O)c1ccc(C2=C3C=CC(=N3)C(c3ccc(C(=O)O)cc3)=c3ccc([nH]3)=C(c3ccc(C(=O)O)cc3)c3ccc([n-]3)C(c3ccc(C(=O)O)cc3)c3ccc2[n-]3)cc1.[Cl-].[Mn+3] (centres unmarked) [MnTBAP, Mn (III) tetrakis (4-benzoic acid) porphyrin chloride]
- Effect on SIN-1 toxicity ([1]; MnTBAP 100 μM, SIN-1 1 mM): completely protected
- Effect on neurotoxicity induced by SIN-1 ([1]; MnTBAP (TBAP), SIN-1 1 mM): completely blocks
- Effect on ONOO− (peroxynitrite) toxicity ([1]; MnTBAP, ONOO− 100 μM): blocked; also recorded: fully protected

Molecule: CC1(C)CCCC(C)(C)N1[O] [TEMPO, 2,2,6,6-tetramethyl-1-piperidinyl-1-oxyl]
- Effect on neurotoxicity induced by NMDA plus DETA/NO ([1]; 24 hr exposure): not demonstrably neuroprotective; also recorded: no demonstrable effect
- Effect on neurotoxicity induced by NMDA plus DETA/NO ([1]; four hour exposure): complete neuroprotection; also recorded: block

Molecule: CN[C@H](CC(=O)O)C(=O)O [NMDA]
- Toxicity to neurons, applied alone ([1]; 24 h exposure, NMDA 20 μM or DETA/NO 300 μM): does not produce toxicity

Molecule: N=c1c[n+](N2CCOCC2)[n-]o1 [SIN-1, 3-morpholinosydnonimine]
- EC50 [2]: 345 ± 91 µM
- Exposure time to maximal ATP depletion ([3]; SIN-1 1 mM): 1 h
- Intracellular ATP ([3]; of control values, 1 hr exposure to SIN-1 1 mM alone): 43±15.6% and 43.3±18.7%
- Intracellular cGMP content [4, 9]: 192±10.7 % of control and 207.6±11.5 % of control and 220.5±39.4 % of control
- Nitration of BSA [5]: strong nitration

- Intracellular cGMP content ([4]; DEA/NO 10 μM in the presence of SOD 100 U/ml): 310.3±33.4 % of control
- Intracellular cGMP content ([4]; ONOO− 100 μM in the presence of SOD 100 U/ml): 131±6 % of control
- Intracellular cGMP content ([4]; SIN-1 100 μM in the presence of SOD 100 U/ml): 327.7±39.5 % of control
Molecule: SOD: bovine superoxide dismutase
- Effect on cGMP accumulation induced by SIN-1 ([4]; SOD 100 U/ml, SIN-1 100 μM): effect similar to that of PQQ; also recorded: enhanced
- Effect on SIN-1 toxicity to neurons ([1]; SOD 100 U/ml co-applied with SIN-1 500 μM, no catalase): potentiated
- Effect on SIN-1 toxicity ([1]; SOD 100 U/ml together with catalase (CAT) 100 U/ml, SIN-1 1 mM, 24 hr): completely blocked; also recorded: fully prevented
- Neuronal survival ([1]; co-application of SOD 100 U/ml and SIN-1 500 μM): 16.8±6.3 % of control and 11.6±1.2 % of control

Molecule: COc1cccc(C=NCCN=Cc2cccc(OC)c2[O-])c1[O-].[Cl-].[Mn+3] [EUK-134]
- Effect on protein tyrosine nitration [6]: reduced protein tyrosine nitration
- Effect on survival of transgenic animals [6]: prolonged survival

Molecule: CC(C)(C)[N+]([O-])=Cc1ccccc1 [PBN, alpha-phenyl-N-tert butyl nitrone]
- Effect on neurotoxicity induced by NMDA plus DETA/NO ([1]; 24 hr exposure): not demonstrably neuroprotective; also recorded: no demonstrable effect
- Effect on neurotoxicity induced by NMDA plus DETA/NO ([1]; four hour exposure): complete neuroprotection; also recorded: block

Molecule: O=NOO [ONOO^−, peroxynitrite]
- Intracellular ATP ([3]; of control values, 1 hr ONOO− 100 μM alone): 37±9.9%
- Intracellular ATP ([3]; of control values, 1 hr ONOO− 100 μM alone, listed as peroxynitrite): 40.5±11%
- ATP level after 5 min exposure ([3]; peroxynitrite 100 μM, 5 min): 50 % of its original levels
- Intracellular cGMP content [4, 9]: 111±11.2 % of control and 97±14.4 % of control
- Intracellular cGMP content ([4]; five minutes, agent alone: SIN-1 100 μM, ONOO− 100 μM or DEA/NO 10 μM, IBMX 100 μM, listed as peroxynitrite): 95.6±4.3 % of control
- Cell (neuronal) survival [1]: 52.4±0.4%
- Cell (neuronal) survival ([1]; listed as peroxynitrite): 49±7.3%

Molecule: [Cl-].[Mn+3].[O-]c1ccccc1C=NCCN=Cc1ccccc1[O-] [EUK-8]
- Effect on protein tyrosine nitration [6]: reduced protein tyrosine nitration
- Effect on survival of transgenic animals [6]: prolonged survival

Molecule: CCN(CC)/[N+]([O-])=N/O.CCNCC [DEA/NO, diethylamine NONOate]
- Intracellular ATP [3, 10]: 51.6±5.8 % of control and 50.8±20.9 % of control
- Intracellular cGMP content [4, 9]: 250±15.5 % of control and 215±32.2 % of control and 318.5±31 % of control
- Neurotoxicity to neurons in culture ([1]; 1 mM, in three out of six experiments): did not cause any toxicity
- Synergism with NMDA in producing neurotoxicity [1]: synergism
- Neuronal survival [1, 7]: 48.7±14.6 % of control
- Neuronal survival [1, 8]: 18.2±5.3%

Molecule: NCCCN(CCCN)/[N+]([O-])=N/O [DPT/NO, dipropylenetriamine NONOate]
- Intracellular ATP [3, 10]: 62.6±4.5 % of control and 64.9±13.7 % of control
- Synergism with NMDA in producing neurotoxicity [1]: synergism
- Neuronal survival [1, 7]: 1.9±0.8 % of control
- Neuronal survival [1, 8]: 6.5±5.3%

Reference: patent US20030229114A1, “Pyrroloquinoline quinone drugs as a neuroprotectant and methods of use thereof” (priority 2002, published 2003)
